According to ChEMBL document CHEMBL2202958, “Development of potent macrocyclic inhibitors of genotype 3a HCV NS3/4A protease” (Bioorg Med Chem Lett, 2012):

Assays:
[1] = tested on: Hepatitis C virus; test: Inhibition of HCV1b NS3/4A protease; parameters: species or system Hepatitis C virus subtype 1b
[2] = Inhibition of HCV3a NS3/4A protease; parameters: species or system Hepatitis C virus subtype 3a
[3] = tested on: Hepatitis C virus; test: Antiviral activity against HCV1b by cell based replicon assay; type: functional, organism-based, Hepacivirus hominis; details: genotype 1b
[4] = tested on: Hepatitis C virus; test: Antiviral activity against HCV1b con1 infected in human Huh-7 cells assessed as inhibition of viral replication after 24 hrs in presence of 50% normal human serum; type: functional, organism-based, Hepacivirus hominis; details: Con1, Huh-7, 24 h
[5] = tested on: Hepatitis C virus; test: Antiviral activity against HCV1b con1 infected in human Huh-7 cells assessed as inhibition of viral replication after 24 hrs in presence of 10% fetal bovine serum; type: functional, organism-based, Hepacivirus hominis; details: Con1, Huh-7, 24 h
[6] = Inhibition of HCV3a NS3/4A protease by time-resolved fluorescence assay; parameters: species or system Hepatitis C virus subtype 3a
[7] = Drug level in Sprague-Dawley rat liver at 5 mg/kg, po after 4 hrs; type: ADME, organism-based; parameters: dose 5 mg/kg, route oral; details: read-out: Drug uptake
[8] = tested on: Hepatitis C virus; test: Inhibition of HCV1b NS3/4A protease R155K mutant by time-resolved fluorescence assay; parameters: species or system Hepatitis C virus subtype 1b
[9] = tested on: Hepatitis C virus; test: Inhibition of HCV1b NS3/4A protease A156T mutant by time-resolved fluorescence assay; parameters: species or system Hepatitis C virus subtype 1b
[10] = Inhibition of HCV1b BK NS3/4A protease expressed in Escherichia coli after 1 hr by time-resolved fluorescence assay; parameters: species or system Hepatitis C virus (isolate BK)

Row | SMILES | Ki [1] | Ki [2] | IC50 [3] | IC50 [4] | IC50 [5] | Ki [6] | concentration at 4 h [7] | Ki [8] | Ki [9] | Ki [10]
1 | C=C[C@@H]1C[C@]1(NC(=O)[C@@H]1C[C@@H]2CN1C(=O)[C@H](C(C)(C)C)NC(=O)OCCC/C=C/c1ccc3ccnc(c3c1)O2)C(=O)NS(=O)(=O)C1CC1 | 0.04 nM | 475 nM | 4.5 nM |  |  |  |  |  |  | 
2 | C=C[C@@H]1C[C@]1(NC(=O)[C@@H]1C[C@@H]2CN1C(=O)[C@H](C1CCCC1)NC(=O)OCC(C)(C)CCCc1cc3c(nc4cc(OC)ccc4c3cc1OC)O2)C(=O)NS(=O)(=O)C1CC1 |  |  |  | 27 nM | 4 nM | 0.8 nM | 35 µM | 0.4 nM | 16 nM | < 0.02 nM
3 | C=C[C@@H]1C[C@]1(NC(=O)[C@@H]1C[C@@H]2CN1C(=O)[C@H](C1CCCC1)NC(=O)OCC(C)(C)CCCc1cc3c(cc(OCC)nc3cc1OC)O2)C(=O)NS(=O)(=O)C1CC1 |  |  |  | 11 nM | 2 nM | 2.2 nM | 35 µM | 1.3 nM | 41 nM | 0.03 nM
4 | C=C[C@@H]1C[C@]1(NC(=O)[C@@H]1C[C@@H]2CN1C(=O)[C@H](C(C)C)NC(=O)N(C)CCCCCc1cc3c(cc(-c4ccccc4)nc3cc1OC)O2)C(=O)NS(=O)(=O)C1CC1 | < 0.16 nM | 5.8 nM |  |  |  |  | 0.304 µM |  |  | 
5 | C=C[C@@H]1C[C@]1(NC(=O)[C@@H]1C[C@@H]2CN1C(=O)[C@H](C1CCCC1)NC(=O)OCC(C)(C)C/C=C/c1cc3c(cc(-c4ccccc4)nc3cc1OC)O2)C(=O)NS(=O)(=O)C1CC1 | < 0.16 nM | 17 nM |  |  |  |  | 41 µM |  |  | 
6 | C=C[C@@H]1C[C@]1(NC(=O)[C@@H]1C[C@@H]2CN1C(=O)[C@H](C1CCCCC1)NC(=O)OCC(C)(C)CCCc1cc3c(cc(-c4ccccc4)nc3cc1OC)O2)C(=O)NS(=O)(=O)C1CC1 |  |  |  | 28 nM | 3.6 nM | 21 nM | 9.9 µM |  |  | 0.05 nM
7 | C=C[C@@H]1C[C@]1(NC(=O)[C@@H]1C[C@@H]2CN1C(=O)[C@H](C1CCCCC1)NC(=O)OCC(C)(C)CCCc1cc3c(cc(-c4ccc(OC)cc4)nc3cc1OC)O2)C(=O)NS(=O)(=O)C1CC1 |  |  |  | 25 nM | 3 nM | 18 nM | 6.1 µM |  |  | 0.07 nM
8 | C=C[C@@H]1C[C@]1(NC(=O)[C@@H]1C[C@@H]2CN1C(=O)[C@H](C1CCCCC1)NC(=O)OCC(C)(C)CCCc1cc3c(cc(-c4cccc(OC)c4)nc3cc1OC)O2)C(=O)NS(=O)(=O)C1CC1 |  |  |  | 19 nM | 6 nM | 78 nM | 6.7 µM |  |  | 0.07 nM
9 | C=C[C@@H]1C[C@]1(NC(=O)[C@@H]1C[C@@H]2CN1C(=O)[C@H](C1CCCCC1)NC(=O)OCC(C)(C)CCCc1cc3c(cc(-c4ccccc4OC)nc3cc1OC)O2)C(=O)NS(=O)(=O)C1CC1 |  |  |  | 31 nM | 7 nM | 62 nM | 6.3 µM |  |  | 0.09 nM
10 | C=C[C@@H]1C[C@]1(NC(=O)[C@@H]1C[C@@H]2CN1C(=O)[C@H](C1CCCCC1)NC(=O)OCC(C)(C)CCCc1cc3c(cc(NC)nc3cc1OC)O2)C(=O)NS(=O)(=O)C1CC1 |  |  |  | 90 nM | 1.6 nM | 5.4 nM | < 0.005 µM |  |  | 0.09 nM
11 | C=C[C@@H]1C[C@]1(NC(=O)[C@@H]1C[C@@H]2CN1C(=O)[C@H](C1CCCCC1)NC(=O)OCC(C)(C)CCCc1cc3c(cc(N(C)C(=O)OCC)nc3cc1OC)O2)C(=O)NS(=O)(=O)C1CC1 |  |  |  | 27 nM | 5 nM | 4.3 nM | 42 µM | 3.3 nM | 87 nM | 0.03 nM
12 | C=C[C@@H]1C[C@]1(NC(=O)[C@@H]1C[C@@H]2CN1C(=O)[C@H](C1CCCCC1)NC(=O)OCC(C)(C)CCCc1cc3c(cc(N4CCCCC4)nc3cc1OC)O2)C(=O)NS(=O)(=O)C1CC1 |  |  |  | 26 nM | 5 nM | 7.5 nM | 0.1 µM |  |  | 0.07 nM
13 | C=C[C@@H]1C[C@]1(NC(=O)[C@@H]1C[C@@H]2CN1C(=O)[C@H](C1CCCCC1)NC(=O)OCC(C)(C)CCCc1cc3c(cc(O)nc3cc1OC)O2)C(=O)NS(=O)(=O)C1CC1 |  |  |  | 460 nM | 85 nM | 23 nM | 0.07 µM |  |  | 0.07 nM
14 | C=C[C@@H]1C[C@]1(NC(=O)[C@@H]1C[C@@H]2CN1C(=O)[C@H](C1CCCCC1)NC(=O)OCC(C)(C)CCCc1cc3c(cc(OC)nc3cc1OC)O2)C(=O)NS(=O)(=O)C1CC1 |  |  |  | 19 nM | 4 nM | 4.1 nM | 5.4 µM |  |  | 0.04 nM
15 | C=C[C@@H]1C[C@]1(NC(=O)[C@@H]1C[C@@H]2CN1C(=O)[C@H](C1CCCCC1)NC(=O)OCC(C)(C)CCCc1cc3c(cc(OCC)nc3cc1OC)O2)C(=O)NS(=O)(=O)C1CC1 |  |  |  | 43 nM | 6 nM | 7.6 nM | 40 µM |  |  | 0.09 nM
16 | C=C[C@@H]1C[C@]1(NC(=O)[C@@H]1C[C@@H]2CN1C(=O)[C@H](C1CCCCC1)NC(=O)OCC(C)(C)CCCc1cc3c(cc(OC4CCCC4)nc3cc1OC)O2)C(=O)NS(=O)(=O)C1CC1 |  |  |  | 34 nM | 5 nM | 15 nM | 4.6 µM |  |  | 0.05 nM
17 | C=C[C@@H]1C[C@]1(NC(=O)[C@@H]1C[C@@H]2CN1C(=O)[C@H](C1CCCCC1)NC(=O)OCC(C)(C)CCCc1cc3c(cc(OCc4csc(C)n4)nc3cc1OC)O2)C(=O)NS(=O)(=O)C1CC1 |  |  |  | 16 nM | 3.5 nM | 3.1 nM | 19 µM | 2.1 nM | 88 nM | 0.1 nM
18 | C=C[C@@H]1C[C@]1(NC(=O)[C@@H]1C[C@@H]2CN1C(=O)[C@H](C1CCCC1)NC(=O)OCC(C)(C)CCCc1cc3c(cc(OCc4csc(C)n4)nc3cc1OC)O2)C(=O)NS(=O)(=O)C1CC1 |  |  |  | 26 nM | 5 nM | 1.6 nM | 0.8 µM |  |  | 0.09 nM
19 | C=C[C@@H]1C[C@]1(NC(=O)[C@@H]1C[C@@H]2CN1C(=O)[C@H](C1CCCC1)NC(=O)OCC(C)(C)CCCc1cc3c(cc(OCc4csc(C(C)C)n4)nc3cc1OC)O2)C(=O)NS(=O)(=O)C1CC1 |  |  |  | 26 nM | 4 nM | 2 nM | 2.7 µM |  |  | < 0.02 nM
20 | CC[C@@H]1C[C@]1(NC(=O)[C@@H]1C[C@@H]2CN1C(=O)[C@H](C(C)(C)C)NC(=O)OCC(C)(C)CCCCc1cccc3c1CN(C3)C(=O)O2)C(=O)NS(=O)(=O)C1CC1 [VANIPREVIR] |  | 54 nM |  |  |  |  |  |  |  | 
